“Also recorded” adds a separate entry of the source.
Assays:
Format in all cases: cell-based
epidermal cells = assay: Inhibition of proliferation of epidermal cells
New born mouse skin = assay: Hair shaft growth in new born mouse skin micro-organ cultures; settings: skin from 30 hr-old mouse, 3 days in culture, 1 ng/ml EGF
Description: New born mouse skin was obtained after surgery, cleaned of underlying fat tissue and cut into 0.4×5 cm flaps, which were then transversely sectioned, using a tissue chopper or other suitable cutting devise into 300 μm sections. The micro-organs were placed in microplates in DMEM in the absence of serum under 5% CO2 at 37° C. under constant shaking for periods of 1 to 14 days. Certain of the micro-organ explants were contacted with a growth factor, e.g., FGF, which was added to the culture media. The medium was changed every 2 days.
New born “hairless” skin can be induced to produce hair shafts when grown in MC cultures.

guinea-pig skin cultures = assay: BrdU labeling assay of cell proliferation (DNA synthesis) in skin micro-organ cultures; settings: FIG. 12
Description: Fresh skin was obtained after surgery, cleaned from underlying fat tissue and cut into 0.4×5 cm flaps, which are then transversely sectioned, using a tissue chopper or other suitable cutting means into 300 μm sections under sterile conditions so that the final tissue segments had dimensions of 4 mm in width and 0.3 mm in thickness (see FIG. 1). These micrograns were placed in a 24-well microplate in 400 μl of DMEM in the absence of serum under 5% CO2 at 37° C., under constant shaking at 12 rpm for periods of one to eight days. Twenty micro-explants were grown per well.
Micro-organ cultures were prepared according to Example I and proliferation of the cells was measured by analyzing the amount of DNA synthesis as follows. […]
The cultures were prepared and maintained in defined medium in similar growth conditions as described in Example I. Control samples were analyzed by immunocytochemistry to determine that the micro-organ culture was maintained in a manner that was similar to that occurring in vivo.
Duplicated samples of skin micro-cultures were treated with TGF-β at 2.5 ng/ml. A quantitative analysis of the number of BrdU labeled cells/explant was performed according to Example II.

With Activin as the substance, how does the “effect on proliferation of epidermal cells” value (epidermal cells) read?
The value was “inhibit proliferation of epidermal cells”.

For “EGF: epidermal growth factor added to culture medium (NSDSECPLSHDGYCLHDGVCMYIEALDKYACNCVVGYIGERCQYRDLKWWELR; UniProt P01133 971-1023, looked up)”, which “hair shaft development in explants” value (New born mouse skin) is on record?
Its value is “development of hair shafts in the explants”.

For TGF-β, which “effect on cell proliferation / mitogenesis in skin micro-organ cultures” value (guinea-pig skin cultures; 2.5 ng/ml, guinea-pig skin cultures) is on record?
Its value is “inhibitor of cell proliferation; also recorded: inhibition of mitogenesis”.

What about the “inhibition of DNA synthesis (number of BrdU labeled cells/explant) compared with controls” value (guinea-pig skin cultures; TGF-β at 2.5 ng/ml, skin micro-cultures in defined medium) of the same substance?
Its value is “Greater than 90%”.
